Assay results as given in the supplement of paper PMC11208160.

Test: recombinant barcode read abundance after kanamycin selection (control-corrected) (log10(CPM+1)); higher = more efficient recombination; sequences stand for … in AGTGCAGAGAAAATCGGCCAGTTTTCTCTGCCTGCAGTCCGCATGCCGT…AGATTTATGCAGCGGACTGCCTTTCTCCCAAAGTGATAAACCGGACAGTATCATGGACCGGTTTTCCCGGTAATCCGTATTTGCAAGGTTGGTTTCACT; site = the 11-nt target
Summary of the method: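 Oligos holding a promoter, target, barcode and the J23119-driven first 104 bases of the bridge RNA were Gibson-cloned into a vector that supplied the other 73 bp plus a T7-inducible recombinase. This library was co-electroporated with a donor plasmid into E. coli. Two replicates went on chloramphenicol/ampicillin LB agar (control) and two on chloramphenicol/ampicillin/kanamycin with 0.1 mM IPTG. Recombination efficiency is read from averaged, control-corrected barcode counts per million at recombinant junctions, reported as log10(CPM+1).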
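Further: IS621 recombinase and bridge RNA in Escherichia coli cells.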

Row | Sequence | recombinant barcode read abundance (log10)
1 | ACGTATGCTTGGGTTCTAACCTGTTGCAT (site TAAATCACTCG) | 0.0674
2 | ACGTCTCCTTGGGTTCTAACCTGTTGCTG (site ACGACTCCTCA) | 0
3 | ACGTCTCCTTGGGTTCTAACCTGTTGCTG (site ACGCCTCCTCA) | 0.175
4 | ACGTCTCCTTGGGTTCTAACCTGTTGCTG (site ACGGCTCCTCA) | 0.0879
5 | ACGTCTCCTTGGGTTCTAACCTGTTGCTG (site ACGTCTCCTCA) | 0.162
6 | ACGTGCTCTTGGGTTCTAACCTGTTGCCT (site AAGTGCTCTAG) | 0.503
7 | ACGTGCTCTTGGGTTCTAACCTGTTGCCT (site ACGTGCTCTAG) | 1.32
8 | ACGTGCTCTTGGGTTCTAACCTGTTGCCT (site AGGTGCTCTAG) | 0.119
9 | ACGTGCTCTTGGGTTCTAACCTGTTGCCT (site ATGTGCTCTAG) | 0.246
10 | ACGTGGCCTTGGGTTCTAACCTGTTGCCA (site ACGTGGCCTTG) | 0.0442
11 | ACGTGGCCTTGGGTTCTAACCTGTTGCCA (site ACGTGGTCTTA) | 0.275
12 | ACGTGGCCTTGGGTTCTAACCTGTTGCTG (site ACGTGGCCTCA) | 1.05
13 | ACGTGGCCTTGGGTTCTAACCTGTTGCTG (site ACTTGGCCTCA) | 0.618
14 | ACGTGGTCTTGGGTTCTAACCTGTTGCTA (site ACGTGGCCTTG) | 0.534
15 | ACGTGGTCTTGGGTTCTAACCTGTTGCTA (site ACGTGGTCTTA) | 0.582
16 | ACTAACACTTGGGTTCTAACCTGTTGCCT (site ACTAACACTAG) | 1.23
17 | ACTAACACTTGGGTTCTAACCTGTTGCCT (site CCTAACACTAG) | 0.0857
18 | ACTAACACTTGGGTTCTAACCTGTTGCCT (site GCTAACACTAG) | 0.0913
19 | ACTAACACTTGGGTTCTAACCTGTTGCCT (site TCTAACACTAG) | 0.546
20 | ACTAACCCTTGGGTTCTAACCTGTTGCCT (site AATAACCCTAG) | 0.0415
21 | ACTAACCCTTGGGTTCTAACCTGTTGCCT (site ACTAACCCTAG) | 1.47
22 | ACTAACCCTTGGGTTCTAACCTGTTGCCT (site AGTAACCCTAG) | 0.08
23 | ACTAACCCTTGGGTTCTAACCTGTTGCCT (site ATTAACCCTAG) | 0.074
24 | ACTAAGCCTTGGGTTCTAACCTGTTGCGG (site ACTAAGCCTCC) | 1.93
25 | ACTAAGCCTTGGGTTCTAACCTGTTGCGG (site AGTAAGCCTCT) | 0.151
26 | ACTACCTCTTGGGTTCTAACCTGTTGCCT (site AATACCTCTAG) | 0.0169

Row | Sequence | recombinant barcode read abundance (log10)
27 | ACTACCTCTTGGGTTCTAACCTGTTGCCT (site ACTACCTCTAG) | 1.35
28 | ACTACCTCTTGGGTTCTAACCTGTTGCCT (site AGTACCTCTAG) | 0.0737
29 | ACTACCTCTTGGGTTCTAACCTGTTGCCT (site ATTACCTCTAG) | 0.0805
30 | ACTACTACTTGGGTTCTAACCTGTTGCCT (site AATACTACTAG) | 0.227
31 | ACTACTACTTGGGTTCTAACCTGTTGCCT (site ACTACTACTAG) | 0.172
32 | ACTACTACTTGGGTTCTAACCTGTTGCCT (site AGTACTACTAG) | 0.492
33 | ACTACTACTTGGGTTCTAACCTGTTGCCT (site ATTACTACTAG) | 0.111
34 | ACTAGACCTTGGGTTCTAACCTGTTGCCT (site ACTAGACCTAG) | 0.5
35 | ACTAGACCTTGGGTTCTAACCTGTTGCCT (site ACTCGACCTAG) | 0.134
36 | ACTAGGACTTGGGTTCTAACCTGTTGCGT (site ACTAGGACTAC) | 2.91
37 | ACTAGGACTTGGGTTCTAACCTGTTGCGT (site ACTAGGACTCC) | 1.22
38 | ACTAGGACTTGGGTTCTAACCTGTTGCGT (site ACTAGGACTGC) | 0.248
39 | ACTAGGACTTGGGTTCTAACCTGTTGCGT (site ACTAGGACTTC) | 0.26
40 | ACTAGGCCTTGGGTTCTAACCTGTTGCGG (site ACTAGGCCTCC) | 2.2
41 | ACTAGGCCTTGGGTTCTAACCTGTTGCGG (site ACTATCCCTCC) | 0.0234
42 | ACTAGGGCTTGGGTTCTAACCTGTTGCGG (site AATAGGGCTCC) | 0.729
43 | ACTAGGGCTTGGGTTCTAACCTGTTGCGG (site ACTAGGGCTCC) | 3.25
44 | ACTAGTCCTTGGGTTCTAACCTGTTGCCA (site ACTACTCCTTC) | 0.0602
45 | ACTAGTCCTTGGGTTCTAACCTGTTGCCA (site ACTAGTCCTTG) | 0.326
46 | ACTAGTCCTTGGGTTCTAACCTGTTGCTT (site ACTAGTCCTAA) | 0.294
47 | ACTAGTCCTTGGGTTCTAACCTGTTGCTT (site ACTAGTCCTAC) | 0.143
48 | ACTAGTCCTTGGGTTCTAACCTGTTGCTT (site ACTAGTCCTAG) | 0.189
49 | ACTAGTCCTTGGGTTCTAACCTGTTGCTT (site ACTAGTCCTAT) | 0.316
50 | ACTATCCCTTGGGTTCTAACCTGTTGCGG (site ACTAGGCCTCC) | 0.283
51 | ACTATCCCTTGGGTTCTAACCTGTTGCGG (site ACTATCCCTCC) | 1.16
52 | ACTCGCTCTTGGGTTCTAACCTGTTGCAC (site ACTCGCTCTGT) | 1.5

Row | Sequence | recombinant barcode read abundance (log10)
53 | ACTCGCTCTTGGGTTCTAACCTGTTGCAC (site GGGACTACTCG) | 0.0345
54 | ACTCTGGCTTGGGTTCTAACCTGTTGCCT (site ACACTGGCTAG) | 0.0916
55 | ACTCTGGCTTGGGTTCTAACCTGTTGCCT (site ACCCTGGCTAG) | 0.256
56 | ACTCTGGCTTGGGTTCTAACCTGTTGCCT (site ACGCTGGCTAG) | 0.254
57 | ACTCTGGCTTGGGTTCTAACCTGTTGCCT (site ACTCTGGCTAG) | 0.372
58 | ACTGAGTCTTGGGTTCTAACCTGTTGCAA (site ACTGAGTCTAT) | 0.0772
59 | ACTGAGTCTTGGGTTCTAACCTGTTGCAA (site ACTGAGTCTTT) | 1.87
60 | ACTGATTCTTGGGTTCTAACCTGTTGCCT (site ACTGATACTAG) | 0.214
61 | ACTGATTCTTGGGTTCTAACCTGTTGCCT (site ACTGATCCTAG) | 0.0546
62 | ACTGATTCTTGGGTTCTAACCTGTTGCCT (site ACTGATGCTAG) | 0.0541
63 | ACTGATTCTTGGGTTCTAACCTGTTGCCT (site ACTGATTCTAG) | 1.34
64 | ACTGCGGCTTGGGTTCTAACCTGTTGCCT (site AATTCGGCTAG) | 0.136
65 | ACTGCGGCTTGGGTTCTAACCTGTTGCCT (site ACTGCGGCTAG) | 0.617
66 | ACTGCGTCTTGGGTTCTAACCTGTTGCCT (site ACTCCGTCTAG) | 0.119
67 | ACTGCGTCTTGGGTTCTAACCTGTTGCCT (site ACTGCGTCTAG) | 1.6
68 | ACTGCTCCTTGGGTTCTAACCTGTTGCCT (site ACTGCTCCTAG) | 0.881
69 | ACTGCTCCTTGGGTTCTAACCTGTTGCCT (site CTCTGAGCTCT) | 0.0903
70 | ACTGGGCCTTGGGTTCTAACCTGTTGCGA (site ACTCGGCCTTC) | 0.191
71 | ACTGGGCCTTGGGTTCTAACCTGTTGCGA (site ACTGGGCCTTC) | 2.67
72 | ACTGTAACTTGGGTTCTAACCTGTTGCTT (site ACTATAACTAA) | 0.102
73 | ACTGTAACTTGGGTTCTAACCTGTTGCTT (site ACTCTAACTAA) | 0.0186
74 | ACTGTAACTTGGGTTCTAACCTGTTGCTT (site ACTGTAACTAA) | 1.06
75 | ACTGTAACTTGGGTTCTAACCTGTTGCTT (site ACTTTAACTAA) | 0.0634
76 | ACTTCTGCTTGGGTTCTAACCTGTTGCCT (site ACTTCACCTAG) | 0.0609
77 | ACTTCTGCTTGGGTTCTAACCTGTTGCCT (site ACTTCTGCTAG) | 0.528
